# Assays:
# CurA [1] = target: T1, CurA (Escherichia coli, UniProt P76113); experiment: ligand fluorescence in one-pot enzymatic synthesis; assay type: binding; conditions: 25 uM CurA without NADPH; BDMC formed in situ by TAL, PCL, MatB and CUS
# T1 construct: N-terminal His6-tag; expressed in E. coli BL21 Gold (DE3) pLysS; apo form
# T1 sequence (P76113 1-345): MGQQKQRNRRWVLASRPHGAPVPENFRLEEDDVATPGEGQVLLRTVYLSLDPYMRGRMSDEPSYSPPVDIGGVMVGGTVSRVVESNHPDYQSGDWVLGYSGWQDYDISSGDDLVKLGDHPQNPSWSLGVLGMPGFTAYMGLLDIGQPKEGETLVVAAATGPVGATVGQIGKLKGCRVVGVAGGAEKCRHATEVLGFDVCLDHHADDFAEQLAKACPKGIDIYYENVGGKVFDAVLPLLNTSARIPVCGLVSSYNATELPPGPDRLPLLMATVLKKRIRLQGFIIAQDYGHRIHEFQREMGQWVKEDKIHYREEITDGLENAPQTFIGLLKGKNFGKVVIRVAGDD
# CurA [2] = target: T1, CurA; experiment: ligand fluorescence (excitation […] nm, emission […] nm); assay type: binding; conditions: apo-CurA without NADPH; titration 0-100 uM curcumin with 25 uM CurA; also reduced as substrate when NADPH is added
# TAL = target: T2, TAL (Rhodotorula glutinis, UniProt U5TV35); experiment: individual enzyme activity assay; assay type: biochemical
# T2 construct: synthetic gene codon optimised for E. coli; expressed in E. coli BL21-Gold (DE3)
# T2 sequence (U5TV35 1-693): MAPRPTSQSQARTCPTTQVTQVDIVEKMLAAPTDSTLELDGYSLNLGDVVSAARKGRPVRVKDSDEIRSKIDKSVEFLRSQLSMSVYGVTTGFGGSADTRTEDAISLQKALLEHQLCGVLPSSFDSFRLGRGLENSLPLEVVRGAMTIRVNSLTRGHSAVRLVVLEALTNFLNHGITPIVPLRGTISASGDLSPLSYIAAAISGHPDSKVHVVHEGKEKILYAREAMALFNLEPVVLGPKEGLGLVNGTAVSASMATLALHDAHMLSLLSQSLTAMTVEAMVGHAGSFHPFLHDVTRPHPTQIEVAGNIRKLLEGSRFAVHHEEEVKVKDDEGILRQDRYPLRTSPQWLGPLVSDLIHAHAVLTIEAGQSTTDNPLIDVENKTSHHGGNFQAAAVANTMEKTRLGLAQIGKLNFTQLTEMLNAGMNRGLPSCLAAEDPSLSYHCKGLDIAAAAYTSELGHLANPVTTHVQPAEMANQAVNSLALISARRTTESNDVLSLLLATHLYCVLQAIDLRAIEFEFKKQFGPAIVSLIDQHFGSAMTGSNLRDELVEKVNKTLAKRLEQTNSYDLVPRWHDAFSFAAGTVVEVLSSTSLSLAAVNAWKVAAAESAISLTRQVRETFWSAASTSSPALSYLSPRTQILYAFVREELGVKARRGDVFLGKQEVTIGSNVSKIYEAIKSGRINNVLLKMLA
smiles,measurement,setting,value
O=C(/C=C/c1ccc(O)cc1)CC(=O)/C=C/c1ccc(O)cc1 [BDMC],ligand fluorescence in one-pot enzymatic synthesis,CurA [1],used in the absence of NADPH to bind to BDMC/curcumin
COc1cc(/C=C/C(=O)CC(=O)/C=C/c2ccc(O)c(OC)c2)ccc1O [curcumin],"ligand fluorescence (excitation 425 nm, emission 520 nm)",CurA [2],CurA could bind curcumin in the absence of NADPH
N[C@@H](Cc1ccc(O)cc1)C(=O)O [tyrosine],individual enzyme activity assay,TAL,The activity of TAL and PCL enzymes was also assayed individually

# — article doi:10.1101/202341v1, “A cell-free synthetic biochemistry platform for raspberry ketone production” (biorxiv, 2017)
